Laboratory results reported in PubChem BioAssay (NCI).
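48-hour exposure; five concentrations; linearly interpolated endpoints. The concentration for full growth arrest is given as TGI.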

How the values were obtained:
Test in all cases: DTP human tumour cell line panel, 48 h
[1] = system: 786-0 renal
[2] = system: A549 NSCLC
[3] = system: ACHN renal
[4] = system: BT-549 breast
[5] = system: CAKI-1 renal
[6] = system: CCRF-CEM leukemia
[7] = system: COLO 205 colon
[8] = system: DU-145 prostate
[9] = system: EKVX NSCLC
[10] = system: HCC-2998 colon
[11] = system: HCT-116 colon
[12] = system: HCT-15 colon
[13] = system: HL-60(TB) leukemia
[14] = system: HOP-62 NSCLC
[15] = system: HS 578T breast
[16] = system: HT29 colon
[17] = system: IGROV1 ovarian
[18] = system: K-562 leukemia
[19] = system: KM12 colon
[20] = system: LOX IMVI melanoma
[21] = system: M14 melanoma
[22] = system: MALME-3M melanoma
[23] = system: MCF7 breast
[24] = system: MDA-MB-231 breast
[25] = system: MDA-MB-435
[26] = system: MDA-N
[27] = system: MOLT-4 leukemia
[28] = system: NCI-H226 lung
[29] = system: NCI-H23 lung
[30] = system: NCI-H460 lung
[31] = system: NCI-H522 lung
[32] = system: NCI/ADR-RES ovarian
[33] = system: OVCAR-3 ovarian
[34] = system: OVCAR-4 ovarian
[35] = system: OVCAR-5 ovarian
[36] = system: OVCAR-8 ovarian
[37] = system: PC-3 prostate
[38] = system: RPMI-8226 leukemia
[39] = system: RXF 393 renal
[40] = system: SF-268 CNS
[41] = system: SF-295 CNS
[42] = system: SF-539 CNS
[43] = system: SK-MEL-2 melanoma
[44] = system: SK-MEL-28 melanoma
[45] = system: SK-MEL-5 melanoma
[46] = system: SK-OV-3 ovarian
[47] = system: SN12C renal
[48] = system: SNB-19 CNS
[49] = system: SNB-75 CNS
[50] = system: SR leukemia
[51] = system: SW-620 colon
[52] = system: T-47D breast
[53] = system: TK-10 renal
[54] = system: U251 CNS
[55] = system: UACC-257 melanoma
[56] = system: UACC-62 melanoma
[57] = system: UO-31 renal
[58] = system: HOP-92 NSCLC

CN(c1ccc(Cl)cc1)S(=O)(=O)c1ccccc1
TGI [1]: > 100 µM | TGI [2]: > 100 µM | TGI [3]: > 100 µM | TGI [4]: > 100 µM | TGI [5]: > 100 µM | TGI [6]: > 100 µM | TGI [7]: > 100 µM | TGI [8]: > 100 µM | TGI [9]: > 100 µM | TGI [10]: > 100 µM | TGI [11]: > 100 µM | TGI [12]: > 100 µM | TGI [13]: > 100 µM | TGI [14]: > 100 µM | TGI [15]: > 100 µM | TGI [16]: > 100 µM | TGI [17]: > 100 µM | TGI [18]: > 100 µM | TGI [19]: > 100 µM | TGI [20]: > 100 µM | TGI [21]: > 100 µM | TGI [22]: > 100 µM | TGI [23]: > 100 µM | TGI [24]: > 100 µM | TGI [25]: > 100 µM | TGI [26]: > 100 µM | TGI [27]: > 100 µM | TGI [28]: > 100 µM | TGI [29]: > 100 µM | TGI [30]: > 100 µM | TGI [31]: > 100 µM | TGI [32]: > 100 µM | TGI [33]: > 100 µM | TGI [34]: > 100 µM | TGI [35]: > 100 µM | TGI [36]: > 100 µM | TGI [37]: > 100 µM | TGI [38]: > 100 µM | TGI [39]: 62.3 µM | TGI [40]: > 100 µM | TGI [41]: > 100 µM | TGI [42]: > 100 µM | TGI [43]: > 100 µM | TGI [44]: > 100 µM | TGI [45]: 47 µM | TGI [46]: > 100 µM | TGI [47]: > 100 µM | TGI [48]: > 100 µM | TGI [49]: > 100 µM | TGI [50]: > 100 µM | TGI [51]: > 100 µM | TGI [52]: > 100 µM | TGI [53]: > 100 µM | TGI [54]: > 100 µM | TGI [55]: > 100 µM | TGI [56]: > 100 µM | TGI [57]: > 100 µM

C/C(=N\NC(=O)c1ccncc1)c1cccc(C(F)(F)F)c1
TGI [2]: > 10 µM | TGI [4]: > 10 µM | TGI [5]: > 10 µM | TGI [6]: > 10 µM | TGI [7]: > 10 µM | TGI [8]: > 10 µM | TGI [9]: > 10 µM | TGI [10]: > 10 µM | TGI [12]: > 10 µM | TGI [13]: > 10 µM | TGI [14]: > 10 µM | TGI [58]: > 10 µM | TGI [15]: > 10 µM | TGI [16]: > 10 µM | TGI [17]: > 10 µM | TGI [18]: > 10 µM | TGI [19]: > 10 µM | TGI [20]: > 10 µM | TGI [21]: > 10 µM | TGI [22]: > 10 µM | TGI [23]: > 10 µM | TGI [24]: > 10 µM | TGI [26]: > 10 µM | TGI [27]: > 10 µM | TGI [28]: > 10 µM | TGI [29]: > 10 µM | TGI [30]: > 10 µM | TGI [32]: > 10 µM | TGI [34]: > 10 µM | TGI [36]: > 10 µM | TGI [38]: > 10 µM | TGI [40]: > 10 µM | TGI [42]: > 10 µM | TGI [44]: > 10 µM | TGI [45]: > 10 µM | TGI [46]: > 10 µM | TGI [47]: > 10 µM | TGI [49]: > 10 µM | TGI [50]: > 10 µM | TGI [51]: > 10 µM | TGI [52]: > 10 µM | TGI [53]: > 10 µM | TGI [54]: > 10 µM | TGI [55]: > 10 µM | TGI [56]: > 10 µM | TGI [57]: > 10 µM
